pEC50: −log10 of the molar value.
Tests used:
[1] = Metabolic stability in (human) liver microsomes; type: in vitro ADME; details: pH 7.4, 0.5 mg/mL microsomal protein, 37° C., 0-45 minutes, LC-MS/MS, read-out: LMS(t1/2 min)
Procedure: 1. Experimental design: test concentration: […]; control compound: testosterone; culture conditions: cultured at 37° C. for 0, 5, 15, 30, 45 minutes; method of determination: LC-MS/MS; calculation method: T1/2=0.693/K (K is the rate constant of the ln [concentration] vs. incubation time profile), Clint=(0.693/T1/2)×(1/(microsomal protein concentration (0.5 mg/mL)))×scaling factor.
2. Experimental method: 1. preheating 0.1 M K-buffer, […], pH=7.4; 2. test solutions of test compound and reference compound, 500 μM additive solution: 5 μL of 10 mM stock solution was added to 95 μL can; […] and 18.75 μL of 20 Mg/mL liver microsome were added to 479.75 μL of K/Mg buffer; 3. 3×NADPH stock solution (6 mM, 5 mg/mL) was prepared by dissolving NADPH in the buffer solution; 4. 30 μL of 1.5 μM additive solution containing 0.75 mg/mL microsomal solution was distributed to the plates designated for different time points (0, 5, 15, 30, 45 minutes); 5. at 0 min, 150 μL of ACN containing IS was added to the wells of the plate, followed by addition of 15 μL of NADPH stock solution (6 mM, step 3); 6. all other plates were pre-incubated at 37° C. for 5 minutes; 7. adding 15 μL of NADPH stock solution to the plate to start the reaction and timing; 8. 150 μL of ACN containing IS was added to the wells of the corresponding plates to stop the reaction at 5 min, 15 min, 30 min and 45 min, respectively; 9. after quenching, the plates were shaken on a shaker for 10 minutes (600 rpm/min) and then centrifuged at 6000 rpm for 15 minutes; 10. 80 μL of supernatant was transferred from each well to a 96-well sample plate containing 140 μL water for LC/MS analysis.
Detection method: LC-MS/MS-11 (8050), internal standard: tolbutamide; MS conditions: positive ion ESI for testosterone and test compound, and negative ion ESI for tolbutamide; Mobile phases: mobile phase A is 0.1% FA in water, and mobile phase B is 0.1% FA in ACN; Column and specification: ACQUITY UPLC HSS T3 1.8 um 2.1*50 mm.

[2] = target: T1, Human GLP-1R (Homo sapiens, UniProt P43220); experiment: GLP-1R agonist activity, HTRF cAMP level test in 293A GFP-GLP-1R cells; type: cell-based
T1 construct: expressed in transfected cells
T1 sequence (P43220 24-463): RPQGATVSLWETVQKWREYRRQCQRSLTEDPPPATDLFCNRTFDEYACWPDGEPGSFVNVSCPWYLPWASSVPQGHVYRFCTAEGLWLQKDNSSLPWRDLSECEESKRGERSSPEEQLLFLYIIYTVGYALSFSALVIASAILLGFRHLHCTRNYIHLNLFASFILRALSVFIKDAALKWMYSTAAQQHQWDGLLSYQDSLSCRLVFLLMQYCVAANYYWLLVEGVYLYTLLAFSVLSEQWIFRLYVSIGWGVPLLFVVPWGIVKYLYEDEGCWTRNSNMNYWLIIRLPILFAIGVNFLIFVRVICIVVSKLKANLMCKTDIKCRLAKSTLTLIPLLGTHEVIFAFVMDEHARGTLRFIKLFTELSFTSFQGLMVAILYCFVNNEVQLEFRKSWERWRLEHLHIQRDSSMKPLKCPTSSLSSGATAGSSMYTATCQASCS
Procedure: GLP-1R-mediated agonist activity was determined by cell-based assays using a homogeneous time-resolved fluorescence (i.e., HTRF)-based cAMP detection kit, which measures the level of cAMP in cells. The method was a competitive immunoassay. It enabled direct pharmacological characterization of compounds acting on Gs-coupled receptors in adherent or suspending cells.
The standard curve of native cAMP or unlabeled cAMP produced by cells competed with d2-labeled cAMP red receptors to bind monoclonal anti-cAMP Eu3+ cryptate donors, and the specific signal was inversely proportional to the concentration of cAMP in standard or tested samples.
Human GLP-1R encoding sequence (NCBI reference sequence NP_002053.3) was subcloned into pEGFP-N1 (tsingke), and the cell line stably expressing the receptor was isolated.
The final DMSO concentration in the buffer mixture was determined to be 1% o.
Cells were collected from a T25 tissue culture flask and centrifuged at room temperature at 1000 rpm for 5 minutes. The cell precipitates were then re-suspended in 1 mL of the stimulating buffer. 20 μL sample of cell suspension was counted on a counter STAR IC 1000 to determine the cell viability and the cell count per mL. The remaining cell suspension was then regulated with the stimulating buffer to deliver 2000 living cells per well using a multi-channel pipette. 5 μL of the cell suspension was added to each well of the plate which already contained the compound. The plate was sealed and incubated at 37° C. with 5% CO2 for 30 minutes.
After 30 minutes of incubation, 5 μL of d2-labeled cAMP and 5 μL of anti-cAMP cryptate (both 1:20 diluted in the cell lysis buffer) were added to each well of the plate. The plate was then incubated at room temperature for 60 minutes, and the changes of HTRF signal were read with Tecan Spark reader: […] at 340 nm (excitation)/at 615 nm and 665 nm (emission). Raw data were converted into nM cAMP by interpolation from the cAMP standard curve, and the effect in percentage was determined relative to the saturated concentration of the complete agonist GLP-17˜37 (400 nM) contained in each plate. Determination of EC50 was performed based on the agonist dose-response curve, which was analyzed using a four-parameter logical dose-response equation with a curve fitting program.
The test data presented the results in the form of a geometric mean (EC50s) based on the number of repetition times.

[3] = target: hERG potassium channel (Homo sapiens, UniProt Q12809); experiment: Inhibition of hERG potassium channels, whole-cell patch clamp in HEK-hERG cells; details: HEK293 cells stably expressing hERG (HEK-hERG)
hERG potassium channel, sequence (Q12809 whole entry): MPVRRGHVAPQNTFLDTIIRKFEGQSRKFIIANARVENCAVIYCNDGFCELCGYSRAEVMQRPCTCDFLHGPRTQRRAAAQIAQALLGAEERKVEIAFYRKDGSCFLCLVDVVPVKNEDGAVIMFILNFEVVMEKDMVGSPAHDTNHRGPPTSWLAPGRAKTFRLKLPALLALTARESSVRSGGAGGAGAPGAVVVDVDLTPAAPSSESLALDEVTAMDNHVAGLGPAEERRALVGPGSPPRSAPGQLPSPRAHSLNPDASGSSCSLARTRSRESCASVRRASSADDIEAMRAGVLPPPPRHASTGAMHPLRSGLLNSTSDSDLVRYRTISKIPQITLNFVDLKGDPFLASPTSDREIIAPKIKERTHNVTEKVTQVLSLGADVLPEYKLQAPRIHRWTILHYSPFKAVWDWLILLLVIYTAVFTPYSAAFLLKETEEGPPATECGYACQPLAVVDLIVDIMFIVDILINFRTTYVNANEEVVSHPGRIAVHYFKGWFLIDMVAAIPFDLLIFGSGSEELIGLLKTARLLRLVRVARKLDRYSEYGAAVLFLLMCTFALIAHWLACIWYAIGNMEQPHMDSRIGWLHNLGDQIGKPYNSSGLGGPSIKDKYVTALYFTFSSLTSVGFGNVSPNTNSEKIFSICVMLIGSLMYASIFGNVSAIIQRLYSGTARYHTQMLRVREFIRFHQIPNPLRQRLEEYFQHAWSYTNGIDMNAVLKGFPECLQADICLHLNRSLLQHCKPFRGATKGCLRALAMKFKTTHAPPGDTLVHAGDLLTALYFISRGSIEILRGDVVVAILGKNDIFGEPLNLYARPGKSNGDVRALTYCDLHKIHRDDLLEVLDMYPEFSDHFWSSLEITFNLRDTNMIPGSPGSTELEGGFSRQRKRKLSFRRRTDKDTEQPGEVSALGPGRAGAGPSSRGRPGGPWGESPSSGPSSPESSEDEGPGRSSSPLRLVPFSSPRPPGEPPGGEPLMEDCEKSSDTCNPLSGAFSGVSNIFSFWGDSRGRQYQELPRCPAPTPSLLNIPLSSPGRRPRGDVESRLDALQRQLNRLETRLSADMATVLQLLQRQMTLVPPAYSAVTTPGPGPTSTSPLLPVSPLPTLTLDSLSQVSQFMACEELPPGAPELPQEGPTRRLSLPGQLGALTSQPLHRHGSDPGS
Procedure: The cell suspension was added to a small petri dish and placed on an inverted microscope stage.
Such a set of pulse programming was repeated every 15 seconds throughout the experiment.

Row | SMILES | half-life at 1 μM [1] | pEC50 [2] | inhibition at 1 µM [3] | inhibition at 10 µM [3]
1 | N#Cc1ccc(COc2ccc3c(n2)C2=C(COC3)CN(Cc3nc4ccc(C(=O)O)cc4n3C[C@@H]3CCO3)CC2)s1 [Compound 12, (S)-2-((2-((5-cyanothiophen-2-yl)methoxy)-5,8,10,11-tetrahydro-oxepino[4,3-b:6,5-c′]dipyridin-9(7H)-yl)methyl)-1-(oxetan-2-ylmethyl)-1H-benzo[d]imidazole-6-carboxylic acid] | 59.8 min | 9.30 |  | 
2 | CC(=O)c1ccc(COc2cccc(C3CCN(Cc4nc5ccc(C(=O)O)cc5n4C[C@@H]4CCO4)CC3)n2)s1 [Compound 1, (S)-2-((4-(6-((5-acetylthiophen-2-yl)methoxy)pyridin-2-yl)piperidin-1-yl)methyl)-1-(oxetan-2-ylmethyl)-1H-benzo[d]imidazole-6-carboxylic acid] | 115 min | 8.33 | 9.82% | 53.8%
3 | CC(=O)c1cc(COc2cccc(C3CCN(Cc4nc5ccc(C(=O)O)cc5n4C[C@@H]4CCO4)CC3)n2)cs1 [Compound 3, (S)-2-((4-(6-((5-acetylthiophen-3-yl)methoxy)pyridin-2-yl)piperidin-1-yl)methyl)-1-(oxetan-2-ylmethyl)-1H-benzo[d]imidazole-6-carboxylic acid] |  | 6.92 |  | 
4 | Cc1cc(C#N)sc1COc1cccc(C2CCN(Cc3nc4ccc(C(=O)O)cc4n3C[C@@H]3CCO3)CC2)n1 [Compound 11, (S)-2-((4-(6-((5-cyano-3-methylthiophen-2-yl)methoxy)pyridin-2-yl)piperidin-1-yl)methyl)-1-(oxetan-2-ylmethyl)-1H-benzo[d]imidazole-6-carboxylic acid] |  | 10.00 |  | 
5 | CC(=O)c1cc(Cl)c(COc2cccc(C3CCN(Cc4nc5ccc(C(=O)O)cc5n4C[C@@H]4CCO4)CC3)n2)s1 [Compound 5, (S)-2-((4-(6-((5-acetyl-3-chlorothien-2-yl)methoxy)pyridin-2-yl)piperidin-1-yl)methyl)-1-(oxetan-2-ylmethyl)-1H-benzo[d]imidazole-6-carboxylic acid] | 37.3 min | 9.25 |  | 
6 | N#Cc1ccc(COc2cccc(C3CCN(Cc4nc5ccc(C(=O)O)cc5n4C[C@@H]4CCO4)CC3)n2)s1 [Compound 4, (S)-2-((4-(6-((5-Cyanothiophen-2-yl)methoxy)pyridin-2-yl)piperidin-1-yl)methyl)-1-(oxetan-2-ylmethyl)-1H-benzo[d]imidazole-6-carboxylic acid] | 132 min | 9.00 | 14.2% | 72.2%

Continued, in another order:

Row | half-life at 1 μM [1] | pEC50 [2] | SMILES | inhibition at 1 µM [3] | inhibition at 10 µM [3]
7 |  | 9.33 | O=C(O)c1ccc2nc(CN3CCC(c4cccc(OCc5ccc(-c6cncnc6)s5)n4)CC3)n(C[C@@H]3CCO3)c2c1 [Compound 13] |  | 
8 | 22.5 min | 10.30 | O=C(O)c1ccc2nc(CN3CCC(c4cccc(OCc5cc6ccncc6s5)n4)CC3)n(C[C@@H]3CCO3)c2c1 [Compound 10, 1-(oxetan-2-ylmethyl)-2-((4-(6-(thieno[2,3-c]pyridin-2-ylmethoxy)pyridin-2-yl)piperidin-1-yl)methyl)-1H-benzo[d]imidazole-6-carboxylic acid] |  | 
9 |  | 7.05 | CC(=O)c1csc(COc2cccc(C3CCN(Cc4nc5ccc(C(=O)O)cc5n4C[C@@H]4CCO4)CC3)n2)c1 [Compound 2, (S)-2-((4-(6-((4-acetylthiophen-2-yl)methoxy)pyridin-2-yl)piperidin-1-yl)methyl)-1-(oxetan-2-ylmethyl)-1H-benzo[d]imidazole-6-carboxylic acid] |  | 
10 |  | 10.30 | N#Cc1sc(COc2cccc(C3CCN(Cc4nc5ccc(C(=O)O)cc5n4C[C@@H]4CCO4)CC3)n2)cc1Cl [Compound 8, (S)-2-((4-(6-((4-chloro-5-cyanothiophen-2-yl)methoxy)pyridin-2-yl)piperidin-1-yl)methyl)-1-(oxetan-2-ylmethyl)-1H-benzo[d]imidazole-6-carboxylic acid] |  | 
11 |  | 10.10 | O=C(O)c1ccc2nc(CN3CCC(c4cccc(OCc5ccc(C(F)(F)F)s5)n4)CC3)n(C[C@@H]3CCO3)c2c1 [Compound 9, (S)-1-(oxetan-2-ylmethyl)-2-((4-(6-((5-(trifluoromethyl)thiophen-2-yl)methoxy)pyridin-2-yl)piperidin-1-yl)methyl)-1H-benzo[d]imidazole-6-carboxylic acid] |  | 
12 | 21.2 min | 10.70 | N#Cc1cc(Cl)c(COc2cccc(C3CCN(Cc4nc5ccc(C(=O)O)cc5n4C[C@@H]4CCO4)CC3)n2)s1 [Compound 7, (S)-2-((4-(6-((3-chloro-5-cyanothiophen-2-yl)methoxy)pyridin-2-yl)piperidin-1-yl)methyl)-1-(oxetan-2-ylmethyl)-1H-benzo[d]imidazole-6-carboxylic acid] |  | 
13 |  | 10.52 | O=C(O)c1ccc2nc(CN3CCC(c4cccc(OCc5ccc(C(=O)C6CC6)s5)n4)CC3)n(C[C@@H]3CCO3)c2c1 [Compound 6, (S)-2-((4-(6-((5-(cyclopropanecarbonyl)thiophen-2-yl)methoxy)pyridin-2-yl)piperidin-1-yl)methyl)-1-(oxetan-2-ylmethyl)-1H-benzo[d]imidazole-6-carboxylic acid] |  | 
